In patent US20250230147A1, “LACTAMS AS CBL-B INHIBITORS” (Genentech, Inc., priority 2021, published 2025):
Structures can show the parent of a compound that is named as a salt.

Legend:
Cbl-b = Cbl-b (Homo sapiens (Human), UniProt Q13191); test: Cbl-b LCK Ub TR-FRET assay (Cbl-b Lck HTRF); assay type: biochemical
How it was run: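 Biotin-Cbl-b preincubated with compound (10-point 3-fold series) 60 min, then His-LCK with 1 mM ATP (2× mixture) added for 90 min at room temperature. Ubiquitination detected by TR-FRET using HA-ubiquitin/UBE2D2 adduct, anti-HA-D2 and streptavidin-Eu; IC50 normalised to no-LCK and DMSO controls.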

c-Cbl = c-Cbl (Homo sapiens (Human), UniProt P22681); test: C-Cbl LCK Ub TR-FRET assay (c-cbl Lck HTRF); assay type: biochemical; conditions: for (fold-selectivity): C-cbl Lck HTRF IC50 relative to Cbl-b Lck HTRF IC50
How it was run: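 Detection reagents added, brief spin, 20 min RT. IC50 fit normalized to no-LCK (low) and DMSO (high) controls.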

c-Cbl, sequence (P22681 47-435): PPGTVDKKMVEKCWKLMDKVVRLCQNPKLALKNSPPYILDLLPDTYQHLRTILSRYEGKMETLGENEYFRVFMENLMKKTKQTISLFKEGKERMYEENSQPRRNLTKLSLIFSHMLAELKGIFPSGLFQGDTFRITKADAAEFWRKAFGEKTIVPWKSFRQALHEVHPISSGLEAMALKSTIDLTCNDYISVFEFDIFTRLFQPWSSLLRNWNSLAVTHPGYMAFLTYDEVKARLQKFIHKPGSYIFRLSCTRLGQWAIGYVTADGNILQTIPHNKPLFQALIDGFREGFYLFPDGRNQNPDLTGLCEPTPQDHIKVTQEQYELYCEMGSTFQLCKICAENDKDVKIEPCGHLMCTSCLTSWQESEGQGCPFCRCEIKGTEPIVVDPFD
Cbl-b, sequence (Q13191 40-426): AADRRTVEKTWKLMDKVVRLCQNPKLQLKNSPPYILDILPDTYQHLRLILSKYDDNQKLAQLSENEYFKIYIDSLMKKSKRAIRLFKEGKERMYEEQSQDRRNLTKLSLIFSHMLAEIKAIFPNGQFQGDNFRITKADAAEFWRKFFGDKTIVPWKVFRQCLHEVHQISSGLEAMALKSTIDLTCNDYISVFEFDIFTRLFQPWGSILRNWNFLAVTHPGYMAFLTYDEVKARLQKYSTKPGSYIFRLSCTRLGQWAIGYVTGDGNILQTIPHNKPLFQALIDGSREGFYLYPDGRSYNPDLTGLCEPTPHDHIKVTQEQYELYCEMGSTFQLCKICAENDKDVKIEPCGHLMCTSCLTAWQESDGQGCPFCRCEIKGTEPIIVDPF

Row | Structure (SMILES) | IC50 (Cbl-b) [nM] | IC50 (c-Cbl) [nM] | (fold-selectivity) (c-Cbl)
1 | CC(C)NCc1cc2c(c(C(F)(F)F)c1)CN(c1cccc(C3(Cc4nncn4C)CC(F)(F)C3)c1)C2=O [Compound 415, 2-(3-(3,3-difluoro-1-((4-methyl-4H-1,2,4-triazol-3-yl)methyl)cyclobutyl)phenyl)-6-((isopropylamino)methyl)-4-(trifluoromethyl)isoindolin-1-one] | 16 | 14 | (0.91x)
2 | Cn1cnnc1[C@H](F)C1(c2cccc(N3Cc4c(cc([C@@H](N)C5CC5)cc4C(F)(F)F)C3=O)c2)COC1 [Compound 53, 6-((S)-amino(cyclopropyl)methyl)-2-(3-(3-((R)-fluoro(4-methyl-4H-1,2,4-triazol-3-yl)methyl)oxetan-3-yl)phenyl)-4-(trifluoromethyl)isoindolin-1-one] | 34 | 63 | 1.9x
3 | COCC1(NCc2cc3c(c(C(F)(F)F)c2)CN(c2cccc(C4(Cc5nncn5C)CC(F)(F)C4)c2)C3=O)CC1 [Compound 367, 2-(3-(3,3-difluoro-1-((4-methyl-4H-1,2,4-triazol-3-yl)methyl)cyclobutyl)phenyl)-6-(((1-(methoxymethyl)cyclopropyl)amino)methyl)-4-(trifluoromethyl)isoindolin-1-one] | 30 | 29 | (0.96x)
4 | C=CC1(O)CN(Cc2cc3c(c(C(F)(F)F)c2)CN(c2cccc(C4([C@@H](F)c5nncn5C)COC4)c2)C3=O)C1 [Compound 169, (R)-2-(3-(3-(fluoro(4-methyl-4H-1,2,4-triazol-3-yl)methyl)oxetan-3-yl)phenyl)-6-((3-hydroxy-3-vinylazetidin-1-yl)methyl)-4-(trifluoromethyl)isoindolin-1-one] | 44 | 99 | 2.2x
5 | Cn1cnnc1CC1(c2cc(Cl)nc(N3Cc4c(cc(CNC5(C)CCC5)cc4C(F)(F)F)C3=O)c2)CCC1 [Compound 351, 2-(6-chloro-4-(1-((4-methyl-4H-1,2,4-triazol-3-yl)methyl)cyclobutyl)pyridin-2-yl)-6-(((1-methylcyclobutyl)amino)methyl)-4-(trifluoromethyl)isoindolin-1-one formate] | 33 | 19 | –
6 | Cn1cnnc1C[C@]1(c2cccc(N3Cc4c(cccc4C(F)(F)F)C3=O)c2)C[C@@H](F)C1 [Compound 99, 2-(3-((1s,3r)-3-fluoro-1-((4-methyl-4H-1,2,4-triazol-3-yl)methyl)cyclobutyl)phenyl)-4-(trifluoromethyl)isoindolin-1-one] | 170 | 340 | 2.0x
7 | Cn1cnnc1CC1(c2cccc(N3Cc4c(cc(CN5CCC6(CC6)C5)cc4C(F)(F)F)C3=O)c2)CC(F)(F)C1 [Compound 106, 6((5-azaspiro[2.4]heptan-5-yl)methyl)-2-(3-(3,3-difluoro-1-((4-methyl-4H-1,2,4-triazol-3-yl)methyl)cyclobutyl)phenyl)-4-(trifluoromethyl)isoindolin-1-one] | 18 | 15 | 0.81x
8 | Cn1cnnc1[C@H](F)[C@@](C)(F)c1cccc(N2Cc3c(cc(CN4CC(C)(F)C4)cc3C(F)(F)F)C2=O)c1 [Compound 33, 2-(3-((1 S,2S)-1,2-difluoro-1-(4-methyl-4H-1,2,4-triazol-3-yl)propan-2-yl)phenyl)-6-((3-fluoro-3-methylazetidin-1-yl)methyl)-4-(trifluoromethyl)isoindolin-1-one] | 890 | 1900 | 2.1x
9 | CC(C)[C@H]1CN(Cc2cc3c(c(C(F)(F)F)c2)CN(c2cccc(C4([C@@H](F)c5nncn5C)COC4)c2)C3=O)CCN1 [Compound 90, 2-(3-(3((R)-fluoro(4-methyl-4H-1,2,4-triazol-3-yl)methyl)oxetan-3-yl)phenyl)-6-(((S)-3-isopropylpiperazin-1-yl)methyl)-4-(trifluoromethyl)isoindolin-1-one] | 42 | 58 | 1.4x
10 | Cn1cnnc1[C@H](F)C1(c2cccc(N3Cc4c(cc(CN5CCC5)cc4C(F)(F)F)C3=O)c2)CC(F)(F)C1 [Compound 397, (R)-6-(azetidin-1-ylmethyl)-2-(3-(3,3-difluoro-1-(fluoro(4-methyl-4H-1,2,4-triazol-3-yl)methyl)cyclobutyl)phenyl)-4-(trifluoromethyl)isoindolin-1-one] | 150 | 150 | (1.0x)
11 | C[C@@H](c1cc2c(c(C(F)(F)F)c1)CN(c1cccc(C3([C@@H](F)c4nncn4C)COC3)c1)C2=O)N1CC(C)(F)C1 [Compound 108, 2-(3-(3((R)-fluoro(4-methyl-4H-1,2,4-triazol-3-yl)methyl)oxetan-3-yl)phenyl)-6-((S)-1-(3-fluoro-3-methylazetidin-1-yl)ethyl)-4-(trifluoromethyl)isoindolin-1-one] | 83 | 160 | 2.0x
12 | Cn1cnnc1[C@H](F)C1(c2cccc(N3Cc4c(cc(CN5CCC[C@H](CO)C5)cc4C(F)(F)F)C3=O)c2)COC1 [Compound 143, 2-(3-(3-((R)-fluoro(4-methyl-4H-1,2,4-triazol-3-yl)methyl)oxetan-3-yl)phenyl)-6-(((S)-3-(hydroxymethyl)piperidin-1-yl)methyl)-4-(trifluoromethyl)isoindolin-1-one] | 29 | 27 | 0.92x
13 | CC(C)C1(O)CN(Cc2cc3c(c(C(F)(F)F)c2)CN(c2cccc(C4([C@@H](F)c5nncn5C)COC4)c2)C3=O)C1 [Compound 183, (R)-2-(3-(3-(fluoro(4-methyl-4H-1,2,4-triazol-3-yl)methyl)oxetan-3-yl)phenyl)-6-((3-hydroxy-3-isopropylazetidin-1-yl)methyl)-4-(trifluoromethyl)isoindolin-1-one] | 57 | 120 | 2.2x
14 | Cn1cnnc1CC1(c2cccc(N3Cc4c(cc(CNCC5CC5)cc4C(F)(F)F)C3=O)c2)CC(F)(F)C1 [Compound 334, 6-(((cyclopropylmethyl)amino)methyl)-2-(3-(3,3-difluoro-1-((4-methyl-4H-1,2,4-triazol-3-yl)methyl)cyclobutyl)phenyl)-4-(trifluoromethyl)isoindolin-1-one] | 11 | 8.1 | (0.72) x
15 | Cn1cnnc1CC1(c2cc(CCc3ccccc3)nc(N3Cc4c(cc(CNC5(C)CCC5)cc4C(F)(F)F)C3=O)c2)CCC1 [Compound 325, 2-(4-(1-((4-methyl-4H-1,2,4-triazol-3-yl)methyl)cyclobutyl)-6-phenethylpyridin-2-yl)-6-(((1-methylcyclobutyl)amino)methyl)-4-(trifluoromethyl)isoindolin-1-one] | 47 | 41 | (0.87x)
16 | Cn1cnnc1CC1(c2cccc(N3Cc4c(cc(CNCC5(C)CC5)cc4C(F)(F)F)C3=O)c2)CC(F)(F)C1 [Compound 352, 2-(3-(3,3-difluoro-1-((4-methy-4H-1,2,4-triazol-3-yl)methyl)cyclobutyl)phenyl)-6-((((1-methylcyclopropyl)methyl)amino)methyl)-4-(trifluoromethyl)isoindolin-1-one formate] | 12 | 6.7 | –
17 | CC(C)Nc1cc(N2Cc3c(cc(CNC4(C)CCC4)cc3C(F)(F)F)C2=O)cc(C2(Cc3nncn3C)CCC2)c1 [Compound 462, 2-(3-(isopropylamino)-5-(1-((4-methyl-4H-1,2,4-triazol-3-yl)methyl)cyclobutyl)phenyl)-6-(((1-methylcyclobutyl)amino)methyl)-4-(trifluoromethyl)isoindolin-1-one] | 8.3 | 7.9 | (0.95x)
18 | C[C@H](c1cc2c(c(C(F)(F)F)c1)CN(c1cccc(C3([C@@H](F)c4nncn4C)COC3)c1)C2=O)N1CC(C)(F)C1 [Compound 109, 2-(3-(3((R)-fluoro(4-methyl-4H-1,2,4-triazol-3-yl)methyl)oxetan-3-yl)phenyl)-6-((R)-1-(3-fluoro-3-methylazetidin-1-yl)ethyl)-4-(trifluoromethyl)isoindolin-1-one] | 44 | 85 | 1.9x
19 | Cn1cnnc1[C@H](F)C1(c2cccc(N3Cc4c(cc([C@@H](N)C5CCC5)cc4C(F)(F)F)C3=O)c2)COC1 [Compound 391, 6-((S)-amino(cyclobutyl)methyl)-2-(3-(3-((R)-fluoro(4-methyl-4H-1,2,4-triazol-3-yl)methyl)oxetan-3-yl)phenyl)-4-(trifluoromethyl)isoindolin-1-one] | 33 | 63 | (1.9x)
20 | CC(C)C1(O)CN(Cc2cc3c(c(C(F)(F)F)c2)CN(c2cccc(C4([C@H](F)c5nncn5C)COC4)c2)C3=O)C1 [Compound 184, (S)-2-(3-(3-(fluoro(4-methyl-4H-1,2,4-triazol-3-yl)methyl)oxetan-3-yl)phenyl)-6-((3-hydroxy-3-isopropylazetidin-1-yl)methyl)-4-(trifluoromethyl)isoindolin-1-one] | 160 | 370 | 2.3x
21 | Cn1cnnc1[C@@H](F)C1(c2cccc(N3Cc4c(cc(CN5CC6(CC6)C5)cc4C(F)(F)F)C3=O)c2)COC1 [Compound 79] | 170 | 270 | 1.6x
22 | CCn1cnnc1C(F)C1(c2cccc(N3Cc4c(cc(CN5CCN(C)C[C@@H]5C(C)C)cc4C(F)(F)F)C3=O)c2)CC(F)(F)C1 (stereo partly drawn) [Compound 485, 2-(3-(1-((4-ethyl-4H-1,2,4-triazol-3-yl)fluoromethyl)-3,3-difluorocyclobutyl)phenyl)-6-(((S)-2-isopropyl-4-methylpiperazin-1-yl)methyl)-4-(trifluoromethyl) isoindolin-1-one] | 31 | 29 | (0.92x)
